Reference: the supplement of paper PMC10307832

Experiments:
Experiment in all cases: relative viability (nuclei count vs DMSO), 5 days (fraction); higher = more cells survive
Pazopanib + Lapatinib = compound: Cc1ccc(Nc2nccc(N(C)c3ccc4c(C)n(C)nc4c3)n2)cc1S(N)(=O)=O [Pazopanib] + CS(=O)(=O)CCNCc1ccc(-c2ccc3ncnc(Nc4ccc(OCc5cccc(F)c5)c(Cl)c4)c3c2)o1 [Lapatinib] (partner 2 µM)
Procedure, shortened: (§1)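 Lung cancer cell lines in 1536-well plates got either a single drug or a fixed anchor-drug dose together with five library-drug doses (not always all listed) in √10 steps, by pin tool, on the day after seeding. Nuclei were counted after 5 days, and relative viability is the treated-to-vehicle ratio of nuclei counts. Values are medians of duplicate plates.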

Pazopanib + Alpelisib = compound: Cc1ccc(Nc2nccc(N(C)c3ccc4c(C)n(C)nc4c3)n2)cc1S(N)(=O)=O [Pazopanib] + Cc1nc(NC(=O)N2CCC[C@H]2C(N)=O)sc1-c1ccnc(C(C)(C)C(F)(F)F)c1 [Alpelisib] (partner 2 µM)
Procedure, shortened: as §1

Ponatinib + Lapatinib = compound: Cc1ccc(C(=O)Nc2ccc(CN3CCN(C)CC3)c(C(F)(F)F)c2)cc1C#Cc1cnc2cccnn12 [Ponatinib] + CS(=O)(=O)CCNCc1ccc(-c2ccc3ncnc(Nc4ccc(OCc5cccc(F)c5)c(Cl)c4)c3c2)o1 [Lapatinib] (partner 2 µM)
Procedure, shortened: as §1

Ponatinib + Pictilisib = compound: Cc1ccc(C(=O)Nc2ccc(CN3CCN(C)CC3)c(C(F)(F)F)c2)cc1C#Cc1cnc2cccnn12 [Ponatinib] + CS(=O)(=O)N1CCN(Cc2cc3nc(-c4cccc5[nH]ncc45)nc(N4CCOCC4)c3s2)CC1 [Pictilisib] (partner 1 µM)
Procedure, shortened: as §1

Cell Line	relative viability (Pazopanib + Lapatinib; first compound 0.01 µM)	relative viability (Pazopanib + Lapatinib; first compound 0.03162 µM)	relative viability (Pazopanib + Lapatinib; first compound 0.1 µM)	relative viability (Pazopanib + Lapatinib; first compound 0.3162 µM)	relative viability (Pazopanib + Lapatinib; first compound 1 µM)	relative viability (Pazopanib + Alpelisib; first compound 0.01 µM)	relative viability (Pazopanib + Alpelisib; first compound 0.03162 µM)	relative viability (Pazopanib + Alpelisib; first compound 0.1 µM)	relative viability (Pazopanib + Alpelisib; first compound 0.3162 µM)	relative viability (Pazopanib + Alpelisib; first compound 1 µM)	relative viability (Ponatinib + Lapatinib; first compound 0.002 µM)	relative viability (Ponatinib + Lapatinib; first compound 0.006325 µM)	relative viability (Ponatinib + Lapatinib; first compound 0.06325 µM)	relative viability (Ponatinib + Lapatinib; first compound 0.2 µM)	relative viability (Ponatinib + Pictilisib; first compound 0.002 µM)	relative viability (Ponatinib + Pictilisib; first compound 0.006325 µM)	relative viability (Ponatinib + Pictilisib; first compound 0.06325 µM)	relative viability (Ponatinib + Pictilisib; first compound 0.2 µM)
LC-2-ad	1.01	0.954	0.999	0.979	1.12	0.844	0.884	0.916	0.866	0.891	0.969	0.697	0.49	0.495	0.353	0.239	0.191	0.207
SW 1573	0.996	1.1	1.14	1.27	1.41	0.69	0.707	0.683	0.808	0.81	1.1	1.19	1.25	1.22	0.489	0.515	0.526	0.566
COR-L 105	0.342	0.414	0.386	0.341	0.401	0.981	1.03	1.04	1.07	1.04	0.385	0.369	0.374	0.347	0.424	0.379	0.443	0.567
NCI-H1975	0.798	0.822	0.875	0.873	0.907	0.684	0.648	0.608	0.74	0.662	0.811	0.817	1.14	1.03	0.311	0.309	0.408	0.353
Calu-6	1.07	1.14	1.21	0.999	0.96	0.973	1.09	1.04	0.956	0.99	1	0.954	1.22	1.03	0.92	0.87	0.928	0.724
NCI-H1993	0.69	0.853	0.573	0.797	0.927	0.67	0.7	0.759	0.703	0.733	0.885	0.78	0.872	0.872	0.804	0.805	0.73	0.868
SK-LU-1	0.903	0.942	1.18	0.976	0.871	0.977	1.24	1.1	1.05	1.04	0.636	0.858	0.864	0.741	0.518	0.63	0.523	0.377
NCI-H23	0.887	1.3	1.41	1.09	1.14	0.676	0.73	0.738	0.693	0.919	1.03	1.02	1.31	0.985	0.588	0.592	0.571	0.44
HCC-366	1.09	1.03	1.09	1.15	1.03	0.33	0.37	0.54	0.444	0.454	1.01	1.01	1.08	1.01	0.149	0.101	0.146	0.275
EMC-BAC-2	0.735	0.921	0.915	0.904	0.991	0.702	0.764	0.808	0.767	0.747	0.797	0.852	0.918	0.806	0.549	0.537	0.684	0.527
NCI-H3122	1.09	1.04	1.17	1.01	1.08	0.733	0.734	0.783	0.884	0.736	0.993	1	1.01	1.07	0.635	0.7	0.635	0.73
SK-MES-1	0.43	0.472	0.508	0.491	0.58	0.816	0.872	1.02	0.977	0.836	0.472	0.531	0.749	0.59	0.392	0.409	0.569	0.48
NCI-H2170	0.242	0.264	0.293	0.316	0.269	0.73	0.794	0.877	0.646	0.787	0.281	0.295	0.289	0.298	0.325	0.322	0.351	0.354
EPLC-272H	0.638	0.797	1.01	1.14	0.802	0.734	0.966	1	0.991	0.804	0.917	1.05	0.957	0.654	0.29	0.373	0.342	0.335
EBC-1	0.184	0.251	0.232	0.247	0.232	0.914	0.907	0.913	0.914	1	0.2	0.233	0.225	0.227	0.372	0.428	0.327	0.283
NCI-H1915	0.898	1.03	1.01	0.976	0.941	1.06	1.11	0.971	1.04	0.952	0.908	0.95	0.986	1.02	0.892	0.98	1.03	1.03
NCI-H647	0.87	1.21	1.17	1.08	1.16	1.37	1.31	1.35	1.19	1.11	0.99	0.995	1.11	0.811	0.381	0.449	0.434	0.376
